B1: α-keto acid reductase: NADH-dependent α-keto acid reductase purified from Leuconostoc mesenteroides subsp. dextranicum ATCC 17072; amino acid sequence SEQ ID NO: 2 (protein)
chain: MKIAIAGFGALGARLGVMLQAGGHEVTGIDGWPAHIAAINTKGLTVVKDNDAPQKYFVPVMPASEVTGTFDLIILLTKTPQLDRMLTDIQPIITDTTKLLVLSNGLGNIEVMAKHVSRHQILAGVTLWTSSLIKPGEIHVTGSGSIKLQAIGDADVQSIADALNQAGLNAEITPDVMTAIWHKAGINAVLNPLSVLLNANIAEFGTAGNAMDLALNILDEMKQVGASQGIKVDVSGIMTDLSQLLKPENAGNHFPSMYQDIQNGKRTEIDFLNGYFAKIGHESGIPTPFNALVTRLIHAKEDIERVKLAKQQENFEI
modifications: Leuconostoc mesenteroides

test system: not given; test: not given; format: biochemical, Leuconostoc mesenteroides subsp. dextranicum; settings: purification steps from Leuconostoc mesenteroides subsp. dextranicum ATCC 17072, NADH-dependent
Description: Leuconostoc mesenteroides subsp. dextranicum strain (ATCC 17072) was cultured in 1.2 L of MRS medium (Lactobacilli MRS broth, Difco Laboratories), and then cells were harvested by centrifugation. The resulting wet cells were suspended in 50 mM Tris-HCl buffer (pH 8.5) containing 0.02% 2-mercaptoethanol and 2 mM phenylmethanesulfonyl fluoride (PMSF), and crushed with a bead beater (Biospec Products, Inc.). Then, cell debris was removed by centrifugation to prepare cell-free extract. Protamine sulfate was added to the cell-free extract and the mixture was centrifuged to prepare supernatant avoid of nucleic acid. Ammonium sulfate was added to the supernatant at a final concentration of 30%. […] NADH-dependent 2-chlorophenyl glyoxylic acid-reducing activity was detected in fractions eluted with the gradient. […]
2-chlorophenyl glyoxylic acid-reducing activities of the enzyme obtained in Example 9 at various pHs were determined by changing the pH with the use of potassium phosphate buffer, sodium acetate buffer, and Britten and Robinson broad-range buffer. […]
2-chlorophenyl glyoxylic acid-reducing activities of the enzyme obtained in Example 9 were measured under standard reaction conditions at various temperatures. […]

Q: With B1 as the molecule, how does the Relative activity read?
A: 3810 U/mg

same assay, conditions: purified enzyme, single band on SDS-PAGE

Q: With B1 as the molecule, how does the Specific activity read?
A: 3,810 U/mg

test system: α-keto acid reductase; test: Dehydrogenase activity of α-keto acid reductase against 2-chloromandelic acid; format: biochemical, Leuconostoc mesenteroides subsp. dextranicum; settings: coenzyme NAD^+, substrate 1 mM; reduction activity of 2-chlorophenyl glyoxylic acid taken as 100
Description: In the present invention, the dehydrogenase activity against 2-chloromandelic acid of an enzyme can be confirmed by the following assay procedure:incubate the enzyme at 30° C. in a reaction solution of 50 mM Tris-HCl buffer (pH 8.5) containing 2.5 mM NAD^+, and 1 mM 2-chloromandelic acid; and measure the increase in absorbance at 340 nm associated with the generation of NADH. 1 U is defined as an amount of enzyme that catalyzes the production of 1 μmol NADH in one minute.
(§1) The enzyme obtained in Example 9 was incubated with various α-keto acids, ketones, ketols, etc. The activities of the reduction reaction are shown in Table 8, defined as relative activities taking the reduction activity of 2-chlorophenyl glyoxylic acid as 100.

Q: Which Relative activity does the source give for `O=C(O)C(O)c1ccccc1Cl` (racemic) [(R,S)-2-chloromandelic acid] here?
A: 0.022%

Q: With `O=C(O)[C@H](O)c1ccccc1Cl` [(R)-2-chloromandelic acid] as the molecule, how does the Relative activity read?
A: 0.045%

test system: α-keto acid reductase; test: Substrate specificity of α-keto acid reductase (reduction reaction); format: biochemical, Leuconostoc mesenteroides subsp. dextranicum; settings: coenzyme NADH, substrate 1 mM; reduction activity of 2-chlorophenyl glyoxylic acid taken as 100
Description: as §1

Q: For `CC(C)C(=O)C(=O)O` [α-ketoisovaleric acid], which Relative activity is on record?
A: 19.3%

Q: For `CCCC(=O)C(=O)O` [α-ketovaleric acid], which Relative activity is on record?
A: 3.1%

Q: Which Relative activity does the source give for `O=C(O)C(=O)Cc1ccccc1` [α-keto-4-phenylpyruvic acid] here?
A: 0.1%

Q: Which Relative activity does the source give for `O=C(O)C(=O)c1ccccc1` [phenyl glyoxylic acid] here?
A: 12.9%

Q: For `CCC(=O)C(=O)O` [α-ketobutyric acid], which Relative activity is on record?
A: 0.4%

Q: Which Relative activity does the source give for `CCCCC(=O)C(=O)O` [α-ketocaproic acid] here?
A: 4.3%

Q: Which Relative activity does the source give for `CC(C)(C)C(=O)C(=O)O` [trimethyl pyruvic acid] here?
A: 0.1%

Q: With `O=C(O)C(=O)c1ccccc1Cl` [2-chlorophenyl glyoxylic acid] as the molecule, how does the Relative activity read?
A: 100.0%

Q: With `CC(C)CC(=O)C(=O)O` [α-ketoisocaproic acid] as the molecule, how does the Relative activity read?
A: 14.7%

Q: For `O=C(O)C(=O)Cc1ccccc1` [β-phenylpyruvic acid], which Relative activity is on record?
A: 0.3%

Q: With `CC(=O)C(=O)O` [pyruvic acid] as the molecule, how does the Relative activity read?
A: 0.0%

Q: With `O=C(O)C(=O)c1cccc(Cl)c1` [3-chlorophenyl glyoxylic acid] as the molecule, how does the Relative activity read?
A: 4.5%

same assay, conditions: coenzyme NADH, substrate 5 mM; reduction activity of 2-chlorophenyl glyoxylic acid taken as 100

Q: For `CC(C)(CO)C(=O)C(=O)O` [keto pantoic acid], which Relative activity is on record?
A: 3.1%

same assay, conditions: coenzyme NADPH, substrate 1 mM; NADH reduction of 2-chlorophenyl glyoxylic acid taken as 100

Q: For `O=C(O)C(=O)c1ccccc1Cl` [2-chlorophenyl glyoxylic acid], which Relative activity is on record?
A: 0.4%
